According to patent US20040044067A1, “Toralactone and its derivation and the use of decreasing blood-fat and losing weight” (priority 2000, published 2004):

Test system: hyperlipemia guinea pigs
Test: Effect on serum cholesterol and triglyceride in hyperlipemia guinea pigs (high-cholesterol feed, 30 days)
Assay type: in vivo, guinea pig
Details: for Serum TC (total cholesterol) / Serum TG (triglyceride): guinea pigs on high-cholesterol feed (basic feed+0.5% cholesterol) plus 10 mg/(kg·d) compound for 30 days, serum taken 24 h after last feeding, n=10
Method: The test was performed as described in Fuhua, Wang, Chinese Journal of Surgery, 1991; 8 (1): 17. 60 healthy guinea pigs of 200-500 g were randomly divided into 6 groups based on body weight and sex. Each group contained 10 animals, including both male and female. The guinea pigs of Group 1 were fed with high-cholesterol feed (basic feed+0.5% cholesterol) at an amount of 20 g per 100 g body weight per day. Groups 2, 3, 4, 5 were test groups, the guinea pigs of which were fed with high-cholesterol feed plus 10 mg/(kg·d) of Compound (1), (2), (3) or (4) for 30 days. The guinea pigs of Group 6 were fed with basic feed only. The feeding for each group continued for 30 days, and 24 hours after the last feeding, the guinea pigs were anaesthetized i.p. with 1 g/kg Urethane. Blood was taken from heart, and serum was separated. The level of serum total cholesterol (TC) and triglyceride (TG) were determined.
In the above procedure, cholesterol was determinated by enzymatic analysis, using enzymatic agent assay kit from BGH Company (Taiwan). All the operations were carried out according to the manufacturer's instruction, and the determination was accomplished in ENCOREII automatic biochemistry analyser.

Row | Substance | Serum TC (total cholesterol) [mmol/L] | Serum TG (triglyceride) [mmol/L] | Effect on the level of serum TC and TG (in words) (10 mg/(kg·d)×30d, hyperlipemia guinea pigs)
1 | neotoralactone [Compound (1)] | 4.21 ± 1.9 | 1.21 ± 0.3 | –
2 | neotoralactone-6-O-β-D-galactoside [Compound (4)] | 3.71 ± 1.1 | 1.22 ± 0.2 | –
3 | neotoralactone-6-O-β-D-glucoside [Compound (2)] | – | – | most prominent
4 | neotoralactone-8-O-β-D-glucoside [Compound (3)] | 3.81 ± 0.9 | 1.18 ± 0.2 | –
